For data set [1] the following is noted: Coulter N4MD submicron analyzer; Lee et al., 1996; cited from earlier work.
Another data set has as its system HT1080 and 293 cells. Put plainly: Effect of chloroquine on transfection (FIG. 9). The data set is classed as cell-based, human. The note with it: presence or absence of chloroquine. As for the experimental part: FIG. 9 illustrates the effect of chloroquine on transfection with RZ145-1 in (A) 293 cells and (B) HT1080 cells. The cells were transfected in the presence (black bar) or absence (stippled bar) of 100 uM chloroquine. Cells were lysed 48 hours post transfection and luciferase activity and total protein content were measured.
To determine whether chloroquine affected transfection mediated by polycationic agents of the present invention, HT1080 and 293 cells were transfected using RZ145-1 in the presence and absence of chloroquine. As a control, the same cell lines were transfected with polylysine both in the presence and absence of chloroquine. […] In contrast, polylysine-mediated transfection in the absence of chloroquine was 100-fold lower than polylysine mediated transfection in the presence of chloroquine.

For the substance polylysine [reference compound], the “mean diameter of particles of condensed polynucleotide” value in data set [1] is listed as 50-200 nm. Further, in the data set with HT1080 and 293 cells, the “transfection in the absence of chloroquine relative to presence of chloroquine, fold lower” value is listed as 100 fold.
